Measured values published in US20130324489A1, “NEW ANTIFUNGAL COMPOSITIONS” (DSM IP ASSETS B.V., priority 2011, published 2013).
“And” between values parts separate entries of the source, which are not always exact repeats. Equal values may be shown once.

Experiments:
Botrytis cinerea [1] = experiment: Treatment of wounded strawberries inoculated with Botrytis cinerea (dip, mould growth); assay type: in vivo; conditions: 20° C.
Experimental: Ten fresh, organic strawberries were used per treatment. Each strawberry was wounded with a 0.5 mm long cut and each wound was inoculated with 10 μl of a Botrytis cinerea suspension containing 1×10^5 of spores/ml. […] The antifungal composition also comprised 3.1% (w/w) beeswax, 0.76% (w/w) glycerol, 0.66% (w/w) polyoxyethylene sorbitan monostearate (Tween 60), 0.03% (w/w) methylhydroxyethyl-cellulose (MHEC), 0.02% (w/w) xanthan gum, 0.02% (w/w) anti-foaming agent, 0.15% (w/w) citric acid and 0.01% (w/w) potassium sorbate. The pH of the compositions was 4. A composition without natamycin or procymidone was used as control. The treated strawberries were incubated in a closed box in the dark at 20° C. for 13 days.
During incubation, mould growth on the strawberries was assessed in a twofold manner: (i) the number of moulded strawberries per total of 10 strawberries was counted; and (ii) the antifungal activity (in %) of the individual and combined active ingredients was determined by calculating the reduction in mould growth observed on the strawberries treated with the antifungal composition in comparison to the mould growth on the strawberries treated with the control composition. The expected antifungal activity (E in %) of the combined antifungal composition comprising both active ingredients was calculated according to the Colby equation (Colby, 1967): […]
wherein X and Y are the observed antifungal activities (in %) of the individual active ingredients X and Y, respectively. If the observed antifungal activity (O in %) of the combination exceeds the expected antifungal activity (E in %) of the combination and the synergy factor O/E is thus >1.0, the combined application of the active ingredients leads to a synergistic antifungal effect.
The treated strawberries were assessed on mould growth after 4, 5 and 7 days of incubation according to the two methods described in Example 3.
The treated strawberries were incubated for 9 days and, as of day 5, assessed on mould growth daily. The antifungal activity (in %) of the individual and combined active ingredients was determined according to the method described in Example 3.
During incubation, the treated strawberries were assessed on mould growth according to the two methods described in Example 3.

Penicillium italicum = experiment: Treatment of wounded mandarins inoculated with Penicillium italicum (dip, mould growth); assay type: in vivo; conditions: 500 ppm natamycin, 2000 ppm procymidone or both, 20° C.
Experimental: Ten fresh, organic mandarins were used per treatment. The peel of each mandarin was wounded once using a cork borer according to the method described by de Lapeyre de Bellaire and Dubois (1987). Subsequently, each wound was inoculated with 10 μl of a Penicillium italicum suspension containing 1×10^4 of spores/ml. […] In addition, the antifungal compositions comprised 3.1% (w/w) beeswax, 0.76% (w/w) glycerol, 0.66% (w/w) polyoxyethylene sorbitan monostearate (Tween 60), 0.03% (w/w) methylhydroxyethylcellulose (MHEC), 0.02% (w/w) xanthan gum, 0.02% (w/w) anti-foaming agent, 0.15% (w/w) citric acid and 0.01% (w/w) potassium sorbate. The pH of the compositions was 4. A composition without natamycin or procymidone was used as control.
The treated mandarins were incubated in a closed box in the dark at 20° C. and assessed on mould growth after 6, 8, 10, 13, 15 and 18 days of incubation. The antifungal activity (in %) of the individual and combined active ingredients was determined by calculating the reduction in mould growth observed on the mandarins treated with the antifungal composition in comparison to the mould growth on the mandarins treated with the control composition according to the Colby method (Colby, 1967) described in Example 3.

Botrytis cinerea [2] = experiment: In vitro antifungal activity, 96-well microtiter plates; assay type: cell-based; conditions: 1.25 ppm natamycin, 25° C.
Experimental: The following compositions were tested: […] After incubation of the microtiter plates at 25° C., the in vitro antifungal activity (%) of the individual active ingredients was assessed by calculating the reduction in mould growth observed in the presence of the active ingredient in comparison to the mould growth observed in the absence of the active ingredient. The expected antifungal activity (E in %) of the active ingredient combination was calculated according to the Colby equation (Colby, 1967): […] wherein X and Y are the observed antifungal activities (in %) of the individual active ingredients X and Y, respectively.

[3] = 250 ppm natamycin, 250 ppm procymidone or both, day 4
[4] = 250 ppm natamycin, 250 ppm procymidone or both, day 5
[5] = 250 ppm natamycin, 250 ppm procymidone or both, day 6
[6] = 250 ppm natamycin, 250 ppm procymidone or both, day 7
[7] = 250 ppm natamycin, 250 ppm procymidone or both, day 8
[8] = 250 ppm natamycin, 250 ppm procymidone or both, day 9
[9] = 250 ppm natamycin, 250 ppm procymidone or both, day 10
[10] = 250 ppm natamycin, 250 ppm procymidone or both, day 12
[11] = 250 ppm natamycin, 500 ppm procymidone or both, day 5
[12] = 250 ppm natamycin, 500 ppm procymidone or both, day 6
[13] = 250 ppm natamycin, 500 ppm procymidone or both, day 7
[14] = 250 ppm natamycin, 500 ppm procymidone or both, day 8
[15] = 250 ppm natamycin, 500 ppm procymidone or both, day 9
[16] = 500 ppm natamycin, 1000 ppm procymidone or both, day 4
[17] = 500 ppm natamycin, 1000 ppm procymidone or both, day 5
[18] = 500 ppm natamycin, 1000 ppm procymidone or both, day 7
[19] = 500 ppm natamycin, 2000 ppm procymidone or both, day 5
[20] = 500 ppm natamycin, 2000 ppm procymidone or both, day 6
[21] = 500 ppm natamycin, 2000 ppm procymidone or both, day 7
[22] = 500 ppm natamycin, 2000 ppm procymidone or both, day 8
[23] = 500 ppm natamycin, 2000 ppm procymidone or both, day 8-10
[24] = 500 ppm natamycin, 2000 ppm procymidone or both, day 9
[25] = 500 ppm natamycin, 2000 ppm procymidone or both, day 10
[26] = 500 ppm natamycin, 2000 ppm procymidone or both, day 12
[27] = 500 ppm natamycin, 2000 ppm procymidone or both, day 13
[28] = 1.5 ppm vinclozolin, 1.25 ppm procymidone, alone or natamycin + one of them, day 3
[29] = 1.5 ppm vinclozolin, 1.25 ppm procymidone, alone or natamycin + one of them, day 6

C[C@@H]1C/C=C/C=C/C=C/C=C/[C@H](O[C@@H]2O[C@H](C)[C@@H](O)[C@H](N)[C@@H]2O)C[C@@H]2O[C@](O)(C[C@@H](O)C[C@H]3O[C@@H]3/C=C/C(=O)O1)C[C@H](O)[C@H]2C(=O)O [Natamycin, natamycin]
Number of moulded strawberries/total number of 10 strawberries (Botrytis cinerea [1]; [3]): 4 and 4/10 | Observed antifungal activity O (%) (Botrytis cinerea [1]; [3]): 53% | Number of moulded strawberries/total number of 10 strawberries (Botrytis cinerea [1]; [4]): 7 and 7/10 | Observed antifungal activity O (%) (Botrytis cinerea [1]; [4]): 34% | Number of moulded strawberries/total number of 10 strawberries (Botrytis cinerea [1]; [5]): 9 and 9/10 | Observed antifungal activity O (%) (Botrytis cinerea [1]; [5]): 15% | Number of moulded strawberries/total number of 10 strawberries (Botrytis cinerea [1]; [6]): 10 and 10/10 | Observed antifungal activity O (%) (Botrytis cinerea [1]; [6]): 11% | Number of moulded strawberries/total number of 10 strawberries (Botrytis cinerea [1]; [7]): 10 and 10/10 | Observed antifungal activity O (%) (Botrytis cinerea [1]; [7]): 10% | Number of moulded strawberries/total number of 10 strawberries (Botrytis cinerea [1]; [8]): 10 and 10/10 | Observed antifungal activity O (%) (Botrytis cinerea [1]; [8]): 5% | Observed antifungal activity O (%) (Botrytis cinerea [1]; [9]): 3% | Observed antifungal activity O (%) (Botrytis cinerea [1]; [10]): 0% | Observed antifungal activity O (%) (Botrytis cinerea [1]; [11]): 34% | Observed antifungal activity O (%) (Botrytis cinerea [1]; [12]): 15% | Observed antifungal activity O (%) (Botrytis cinerea [1]; [13]): 11% | Observed antifungal activity O (%) (Botrytis cinerea [1]; [14]): 10% | Observed antifungal activity O (%) (Botrytis cinerea [1]; [15]): 5% | Observed antifungal activity O (%) (Botrytis cinerea [1]; [16]): 36% | Number of moulded strawberries/total number of 10 strawberries (Botrytis cinerea [1]; [17]): 9 and 9/10 | Observed antifungal activity O (%) (Botrytis cinerea [1]; [17]): 12% | Number of moulded strawberries/total number of 10 strawberries (Botrytis cinerea [1]; [18]): 10 and 10/10 | Observed antifungal activity O (%) (Botrytis cinerea [1]; [18]): 7% | Number of moulded strawberries/total number of 10 strawberries (Botrytis cinerea [1]; [19]): 9 and 9/10 | Observed antifungal activity O (%) (Botrytis cinerea [1]; [19]): 12% | Number of moulded strawberries/total number of 10 strawberries (Botrytis cinerea [1]; [20]): 9 and 9/10 | Observed antifungal activity O (%) (Botrytis cinerea [1]; [20]): 4% | Number of moulded strawberries/total number of 10 strawberries (Botrytis cinerea [1]; [21]): 10 and 10/10 | Observed antifungal activity O (%) (Botrytis cinerea [1]; [21]): 7% | Observed antifungal activity O (%) (Botrytis cinerea [1]; [22]): 5% | Number of moulded strawberries/total number of 10 strawberries (Botrytis cinerea [1]; [23]): 10 and 10/10 | Observed antifungal activity O (%) (Botrytis cinerea [1]; [24]): 3% | Observed antifungal activity O (%) (Botrytis cinerea [1]; [25]): 3% | Number of moulded strawberries/total number of 10 strawberries (Botrytis cinerea [1]; [26]): 10 and 10/10 | Observed antifungal activity O (%) (Botrytis cinerea [1]; [26]): 0% | Observed antifungal activity O (%) (Botrytis cinerea [1]; [27]): 0% | Observed antifungal activity O (%) (Penicillium italicum; day 6): 82% | Observed antifungal activity O (%) (Penicillium italicum; day 8): 73% | Observed antifungal activity O (%) (Penicillium italicum; day 10): 66% | Observed antifungal activity O (%) (Penicillium italicum; day 13): 59% | Observed antifungal activity O (%) (Penicillium italicum; day 15): 55% | Observed antifungal activity O (%) (Penicillium italicum; day 18): 44% | Observed antifungal activity O (%) (Botrytis cinerea [2]; [28]): 0% | Observed antifungal activity O (%) (Botrytis cinerea [2]; [29]): 0% | Observed antifungal activity O (%) (Botrytis cinerea [2]; 3.0 ppm iprodione or both, day 5): 50% | Observed antifungal activity O (%) (Botrytis cinerea [2]; 7.0 ppm vinclozolin, 2.0 ppm procymidone, alone or natamycin + one of them, day 10): 0% | Observed antifungal activity O (%) (Botrytis cinerea [2]; 8.0 ppm iprodione or both, day 12): 0%

CC12CC1(C)C(=O)N(c1cc(Cl)cc(Cl)c1)C2=O (stereo not drawn) [Procymidone, procymidone]
Number of moulded strawberries/total number of 10 strawberries (Botrytis cinerea [1]; [3]): 10 and 10/10 | Observed antifungal activity O (%) (Botrytis cinerea [1]; [3]): 58% | Number of moulded strawberries/total number of 10 strawberries (Botrytis cinerea [1]; [4]): 10 and 10/10 | Observed antifungal activity O (%) (Botrytis cinerea [1]; [4]): 41% | Number of moulded strawberries/total number of 10 strawberries (Botrytis cinerea [1]; [5]): 10 and 10/10 | Observed antifungal activity O (%) (Botrytis cinerea [1]; [5]): 34% | Number of moulded strawberries/total number of 10 strawberries (Botrytis cinerea [1]; [6]): 10 and 10/10 | Observed antifungal activity O (%) (Botrytis cinerea [1]; [6]): 31% | Number of moulded strawberries/total number of 10 strawberries (Botrytis cinerea [1]; [7]): 10 and 10/10 | Observed antifungal activity O (%) (Botrytis cinerea [1]; [7]): 27% | Number of moulded strawberries/total number of 10 strawberries (Botrytis cinerea [1]; [8]): 10 and 10/10 | Observed antifungal activity O (%) (Botrytis cinerea [1]; [8]): 13% | Observed antifungal activity O (%) (Botrytis cinerea [1]; [9]): 10% | Observed antifungal activity O (%) (Botrytis cinerea [1]; [10]): 5% | Observed antifungal activity O (%) (Botrytis cinerea [1]; [11]): 39% | Observed antifungal activity O (%) (Botrytis cinerea [1]; [12]): 26% | Observed antifungal activity O (%) (Botrytis cinerea [1]; [13]): 20% | Observed antifungal activity O (%) (Botrytis cinerea [1]; [14]): 20% | Observed antifungal activity O (%) (Botrytis cinerea [1]; [15]): 17% | Observed antifungal activity O (%) (Botrytis cinerea [1]; [16]): 69% | Number of moulded strawberries/total number of 10 strawberries (Botrytis cinerea [1]; [17]): 10 and 10/10 | Observed antifungal activity O (%) (Botrytis cinerea [1]; [17]): 59% | Number of moulded strawberries/total number of 10 strawberries (Botrytis cinerea [1]; [18]): 10 and 10/10 | Observed antifungal activity O (%) (Botrytis cinerea [1]; [18]): 44% | Number of moulded strawberries/total number of 10 strawberries (Botrytis cinerea [1]; [19]): 8 and 8/10 | Observed antifungal activity O (%) (Botrytis cinerea [1]; [19]): 63% | Number of moulded strawberries/total number of 10 strawberries (Botrytis cinerea [1]; [20]): 9 and 9/10 | Observed antifungal activity O (%) (Botrytis cinerea [1]; [20]): 51% | Number of moulded strawberries/total number of 10 strawberries (Botrytis cinerea [1]; [21]): 10 and 10/10 | Observed antifungal activity O (%) (Botrytis cinerea [1]; [21]): 38% | Observed antifungal activity O (%) (Botrytis cinerea [1]; [22]): 35% | Number of moulded strawberries/total number of 10 strawberries (Botrytis cinerea [1]; [23]): 10 and 10/10 | Observed antifungal activity O (%) (Botrytis cinerea [1]; [24]): 23% | Observed antifungal activity O (%) (Botrytis cinerea [1]; [25]): 13% | Number of moulded strawberries/total number of 10 strawberries (Botrytis cinerea [1]; [26]): 10 and 10/10 | Observed antifungal activity O (%) (Botrytis cinerea [1]; [26]): 2% | Observed antifungal activity O (%) (Botrytis cinerea [1]; [27]): 0% | Observed antifungal activity O (%) (Penicillium italicum; day 6): 0% | Observed antifungal activity O (%) (Penicillium italicum; day 8): 0% | Observed antifungal activity O (%) (Penicillium italicum; day 10): 0% | Observed antifungal activity O (%) (Penicillium italicum; day 13): 0% | Observed antifungal activity O (%) (Penicillium italicum; day 15): 0% | Observed antifungal activity O (%) (Penicillium italicum; day 18): 0% | Observed antifungal activity O (%) (Botrytis cinerea [2]; [28]): 0% | Observed antifungal activity O (%) (Botrytis cinerea [2]; [29]): 0%
